# Data from patent publication US10357537B2, “Cyclotides as immunosuppressive agents” (priority 2011, dated 2019).
# Read-outs that look alike come from different tables or passages of the source. Bridge positions count the residues as written; N and C are the ends. Peptide text beside a SMILES is read from it.
# Legend:
# [1] = system: activated human primary PBMC; assay: Anti-proliferative CFSE cell division assay on anti-CD3/CD28-activated PBMC; conditions: for IC50: read-out: IC50 (μM) ± STDEV, inhibition of PBMC proliferation, PBMCs, anti-CD3/28 mAbs, 72 h, n.a. = not active; for cytotoxicity in PBMC proliferation assay: at 14 μM
# Experimental: Human peripheral blood mononuclear cells (PBMC) were isolated from the blood of healthy adult donors obtained from the Blood Transfusion Centre (University Medical Center, Freiburg, Germany). Venous blood was centrifuged on a LymphoPrep™ gradient (density: 1.077 g/cm^3, 20 min, 500×g, 20° C.; Progen, Heidelberg, Germany). Afterwards cells were washed twice with medium and cell viability and concentration was determined using the trypan blue exclusion test. PBMC were cultured in RPMI 1640 medium supplemented with 10% heat-inactivated fetal calf serum (PAA, Coelbe, Germany), 2 mM L-glutamine, 100 U/mL penicillin and […] (all from Invitrogen, Karlsruhe, Germany). The cells were cultured at 37° C. in a humidified incubator with a 5% CO2/95% air atmosphere. All experiments conducted on human material were approved by the Ethics committee of the University of Freiburg.
# (§1) After cultivation, the cells were assessed in bioassays as described in the text.
# For cell proliferation and cell division tracking analysis PBMC were harvested and washed twice in cold PBS and resuspended in PBS at a concentration of 5×10^6 cells/mL. Cells were incubated for 10 min at 37° C. with carboxyfluorescein diacetate succinimidyl ester (CFSE; 5 μM: Sigma-Aldrich, Taufkirchen, Germany). The staining reaction was stopped by washing twice with complete medium. Afterwards, the cell division progress was analysed using flow cytometric analysis.
# (§2) The anti-proliferative effect of cyclotide mutants/variants was tested according to Example 5. […] Afterwards the cell proliferation was assessed by analysing cell division using flow cytometric-based histogram analysis.
# [2] = system: CD3 purified T-lymphocytes; assay: Anti-proliferative CFSE assay on magnetic-purified CD3+ lymphocytes; conditions: for IC50: read-out: IC50 (μM) ± STDEV, inhibition of CD3 purified T-lymphocyte proliferation, CD3 purified lymphocytes, anti-CD3/28 mAbs, 72 h
# Experimental: as §2
# [3] = system: activated human primary PBMC
# Experimental: as §1
# The levels of apoptosis were determined using the annexin V-FITC apoptosis detection kit (eBioscience, Frankfurt, Germany) according to the manufacturer's instructions. After annexin V staining, propidium iodide solution (PI; eBioscience) was added and the cells were incubated in the dark, followed by a flow cytometric analysis to determine the amount of apoptosis and necrosis. CPT (30 μg/mL) and Triton-X 100 (0.5%) was used as positive controls for apoptosis and necrosis, respectively.
# Cellular apoptotic and necrotic hallmarks were measured by using inter-nucleosomal DNA fragmentation (subG1^+ cells) assay and phosphatidylserine surface analysis through a single and combinatory annexin V and propidium iodide staining. This double staining process allowed the discrimination between viable (annexin^−/PI^−), apoptotic (annexin^+/PI^− and annexin^+/PI^+) or necrotic (annexin^−/PI^+) cells.
compound,measurement,setting,value
"CC[C@H](C)[C@@H]1NC(=O)[C@@H]2CCCN2C(=O)[C@H](Cc2c[nH]c3ccccc23)NC(=O)[C@H]([C@@H](C)O)NC(=O)[C@@H]2CSSC[C@@H]3NC(=O)[C@H]([C@@H](C)O)NC(=O)[C@H](CCC(=O)O)NC(=O)CNC(=O)[C@@H]4CSSC[C@H](NC(=O)CNC(=O)[C@@H]5CCCN5C(=O)[C@H]([C@@H](C)O)NC(=O)[C@H](CC(N)=O)NC(=O)[C@H](CSSC[C@H](NC1=O)C(=O)N[C@@H]([C@@H](C)O)C(=O)N[C@@H](CCCNC(=N)N)C(=O)N[C@@H](CC(=O)O)C(=O)NCC(=O)N[C@@H](CC(C)C)C(=O)N1CCC[C@H]1C(=O)N[C@@H](C(C)C)C(=O)N4)NC(=O)[C@H]([C@@H](C)O)NC(=O)CNC(=O)CNC(=O)[C@H](Cc1ccccc1)NC3=O)C(=O)N[C@@H](CO)C(=O)N2 [Kalata B2] (cyclo(CFGGTCNTPGCSCTWPICTRDGLPVCGET); disulfide 1-13, 6-18, 11-26)",IC50,[1]; cyclotides 1.8-14 μM,0.2 ± 0.1 µM
same,IC50,[2],0.6 ± 0.02 µM
"CC(C)C[C@@H]1NC(=O)[C@H](CCCCN)NC(=O)[C@H](CC(N)=O)NC(=O)[C@H](CCCNC(=N)N)NC(=O)[C@H]([C@@H](C)O)NC(=O)[C@@H]2CSSC[C@@H]3NC(=O)[C@H]([C@@H](C)O)NC(=O)CNC(=O)CNC(=O)[C@H](C(C)C)NC(=O)[C@@H]4CSSC[C@H](NC(=O)[C@H](CCCCN)NC(=O)[C@H](CSSC[C@H](NC(=O)[C@H](C(C)C)NC(=O)[C@@H]5CCCN5C1=O)C(=O)NCC(=O)N[C@@H](CCC(=O)O)C(=O)N[C@@H]([C@@H](C)O)C(=O)N4)NC(=O)CNC(=O)[C@@H]1CCCN1C(=O)[C@H]([C@@H](C)O)NC(=O)[C@H](CC(N)=O)NC3=O)C(=O)N[C@@H](CO)C(=O)N[C@@H](Cc1c[nH]c3ccccc13)C(=O)N1CCC[C@H]1C(=O)N[C@@H](C(C)C)C(=O)N2 [T20K, G1K, Kalata T20K, G1K] (cyclo(CGETCVGGTCNTPGCKCSWPVCTRNKLPV); disulfide 1-15, 5-17, 10-22)",cytotoxicity in PBMC proliferation assay,[1],(cytotoxic)
same,cytotoxicity in PBMC proliferation assay,[1]; listed as T20K+G1K,cytotoxic
same,cytotoxicity in CD3 purified lymphocyte proliferation assay,[2]; at 14 μM,(cytotoxic)
same,IC50,[2],1.1 ± 0.7 µM
"CC[C@@H](C)[C@H]1NC(=O)[C@H]2CCCN2C(=O)[C@@H](Cc2c[nH]c3ccccc23)NC(=O)[C@@H]([C@H](C)O)NC(=O)[C@H]2CSSC[C@H]3NC(=O)[C@@H]([C@H](C)O)NC(=O)[C@@H](CCC(=O)O)NC(=O)CNC(=O)[C@H]4CSSC[C@@H](NC(=O)CNC(=O)[C@H]5CCCN5C(=O)[C@@H]([C@H](C)O)NC(=O)[C@@H](CC(N)=O)NC(=O)[C@@H](CSSC[C@@H](NC1=O)C(=O)N[C@H]([C@H](C)O)C(=O)N[C@H](CCCNC(=N)N)C(=O)N[C@H](CC(=O)O)C(=O)NCC(=O)N[C@H](CC(C)C)C(=O)N1CCC[C@@H]1C(=O)N[C@H](C(C)C)C(=O)N4)NC(=O)[C@@H]([C@H](C)O)NC(=O)CNC(=O)CNC(=O)[C@@H](Cc1ccccc1)NC3=O)C(=O)N[C@H](CO)C(=O)N2 [all-D kalata B2, D-kalataB2]",IC50,[1]; cyclotides 1.8-14 μM,2.3 ± 0.8 µM
same,IC50,[2],2.9 ± 0.4 µM
CC[C@H](C)[C@H](NC(=O)CN)C(=O)NCC(=O)N[C@@H](C)C(=O)N[C@H](C(=O)N[C@@H](CC(C)C)C(=O)N[C@@H](CCCCN)C(=O)N[C@H](C(=O)N[C@@H](CC(C)C)C(=O)N[C@H](C(=O)N[C@H](C(=O)NCC(=O)N[C@@H](CC(C)C)C(=O)N1CCC[C@H]1C(=O)N[C@@H](C)C(=O)N[C@@H](CC(C)C)C(=O)N[C@H](C(=O)N[C@@H](CO)C(=O)N[C@@H](Cc1c[nH]c2ccccc12)C(=O)N[C@H](C(=O)N[C@@H](CCCCN)C(=O)N[C@@H](CCCNC(=N)N)C(=O)N[C@@H](CCCCN)C(=O)N[C@@H](CCCNC(=N)N)C(=O)N[C@@H](CCC(N)=O)C(=O)N[C@@H](CCC(N)=O)C(N)=O)[C@@H](C)CC)[C@@H](C)CC)[C@@H](C)O)[C@@H](C)O)C(C)C)C(C)C [melittin],cell division / proliferation of activated PBMC (in words),"[1]; CFSE, flow cytometry, extract 50-100 μg/mL, cyclotides 1.8-14 μM, melittin 0.05-1.6 μM",decrease of proliferating PBMC at 1.6 μM
same,induction of necrosis,"[3]; kalata B1 14 μM vs untreated control, Triton-X 100, melittin high concentrations",slight effect on necrosis induction at high concentrations
same,induction of apoptosis,"[3]; kalata B1 1.8-14 μM, CPT 30 μg/mL, melittin up to 1.6 μM",mainly due to the induction of apoptosis
Triton-X 100,induction of necrosis,[3],significantly increased the fractions of these cells
